Values quoted from earlier work in patent publication US6428819B1, “Plant extracts for the preparation of pharmaceutical compositions for the treatment of hepatitis” (priority 1996, dated 2002).

Tested on: hepatitis C
Settings: literature reports

Molecule | treatment outcome in chronic hepatitis
Nc1nc2c(ncn2COCCO)c(=O)[nH]1 [Acyclovir] | unsatisfactory
IFN-gamma: interferon gamma with known antiviral activity (protein, UniProt P01579 24-161, looked up) Interferon gamma: QDPYVKEAENLKKYFNAGHSDVADNGTLFLGILKNWKEESDRKIMQSQIVSFYFKLFKNFKDDQSIQKSVETIKEDMNVKFFNSNKKKRDDFEKLTNYSVTDLNVQRKAIHELIQVMAELSPAAKTGKRKRSQMLFRG | ineffective
